“Also recorded” adds a separate entry of the source. Marks after values point to notes of the source that are not given here. Values belong to the compound of their own block, whether it stands above or below them.
How the values were obtained:
[1] = system: zebrafish embryos treated with DOX (cardiomyopathy phenotype); test: Zebrafish doxorubicin cardiomyopathy model (rescue from phenotype); assay type: in vivo; conditions: Danio rerio; rescue from DOX (100 μM) cardiomyopathy phenotype, 40 hours post-treatment; read-out: EC50 is zebrafish
Description: Zebrafish embryos at 30 hours post-fertilization were treated with DOX at 100 μM in 96-well plates as previously described (Liu et al., 2014). Tested compounds were dissolved in DMSO and added at concentrations ranging from 3 nM to 10 μM (n=6 fish per dose; <1% DMSO v/v). The cardiomyopathy phenotype (decreased cardiac contraction, pericardial edema, and decreased tail blood flow) was assessed under light microscopy (5× magnification) at 40 hours post-treatment (hpt). Percent rescue from the cardiomyopathy phenotype was calculated for each concentration tested. Zebrafish were considered to be rescued from DOX-induced cardiomyopathy if all three features of the phenotype were absent. For the tested compounds, each dose-response experiment was repeated three times.
Dose-response curves were constructed using Prism (GraphPad).
Zebrafish were treated with DOX and assessed for the development of the cardiomyopathy phenotype (decreased cardiac contraction, pericardial edema, and decreased tail blood flow). Zebrafish were considered to be rescued if all three features of the cardiomyopathy phenotype were absent upon co-treatment with a tested compound. Referring to FIGS. 3-9, data are depicted as mean+/−standard error (n=6 fish per dose; each experiment performed in triplicate).

[2] = system: DOX-induced cardiac apoptosis in C57/B16 mice; test: Mouse annexin model of acute DOX-induced cardiotoxicity (Anx-750 imaging); assay type: in vivo
Description: DOX fluorescence imaging was carried out on IVIS spectrum with the filter setting 500 nm excitation/600 nm emission, 30 second exposure, with 135 μm in-plane resolution. A series of DOX phantoms, ranging from 0 to 0.03 mM was prepared in saline, and imaged on the IVIS spectrum with identical settings. Anx-750 fluorescence was detected with the filter setting 745 nm excitation/800 nm emission, 30 second exposure, and 135 μm resolution.
Annexin and DOX fluorescence signal was quantified and analyzed in ImageJ (National Institute of Health). For each heart, fluorescence intensity was averaged across 4-6 slices. Annexin uptake was normalized to the saline injected control animals. DOX fluorescence in the heart was quantified by calculating the signal-to-noise ratio (SNR=mean fluorescence intensityheart/standard deviationair). A threshold of two standard deviations above the saline injected control animals was applied to all DOX injected animals, with or without therapeutics. Only animals that met the threshold (thus DOX positive hearts) were included in the analysis. All statistical analysis was performed in Prism (Graphpad).
Doxorubicin was dissolved in 0.9% normal saline and administered at a dose of 15 mg/kg to adult C57/B16 mice via i.p. injection. For the treatment arm, compound of example 2 was dissolved in 10% DMSO and 90% olive oil (carrier) or carrier alone was administered via intraperitoneal injection on the contralateral side.
Twenty-two hours after DOX and treatment injections, Anx-750 (Annexin Vivo 750, Perkin Elmer) was injected intravenously according to manufacturer's instructions. After 2 hours of probe circulation, hearts were excised, sectioned into 1-mm slices along the short axis, and imaged on a commercial imaging system (IVIS spectrum, Perkin Elmer) to assess apoptosis as previously described (Chen et al., 2011).
DOX uptake in the heart was assessed by reflectance fluorescence imaging, and the resultant apoptosis was simultaneously imaged with Anx-750, a near-infrared fluorescent Annexin V probe (Annexin-Vivo 750 is an Annexin V conjugate with a near-infrared fluorochrome, see Chen et al., 2011). […] Referring to FIGS. 1A-1D, * p<0.05, ** p<0.01, and *** p<0.001, ANOVA. Carrier=10% DMSO+90% olive oil.

CYP2B6 = CYP2B6 (Homo sapiens (Human), UniProt P20813); test: CYP inhibition assay, human liver microsomes; assay type: biochemical; conditions: buproprion 100 μM
Description: (§1) CYP inhibition experiments were performed by Cerep Panlabs (Eurofins) using human liver microsomes and the following substrates: phenacetin 10 μM (CYP1A), buproprion 100 μM (CYP2B6), paclitaxel 10 μM (CYP2C8), diclofenac 10 μM (CYP 2C9), omeprazole 0.5 μM (CYP2C19), dextromethorphan 5 μM (CYP2D6), and testosterone 50 μM (CYP3A). Metabolites of each substrate were measured using LC-MS/MS. Mean percent inhibition was calculated using the following reference inhibitors: furafylline (CYP1A), clopidogrel (CYP2B6), montelukast (CYP2C8), sulfaphenazole (CYP2C9), oxybutynin (CYP2C19), quinidine (CYP2D6), and ketoconazole (CYP3A). […] All concentrations were tested in duplicate to obtain the final results.
(§2) The ability of the tested compounds to inhibit a panel of CYP enzymes in vitro was assessed using a series of human liver microsome assays.

CYP1A [3] = biological target: CYP1A (Homo sapiens (Human), UniProt P05177); test: CYP inhibition assay, human liver microsomes; assay type: biochemical; conditions: human liver microsomes, phenacetin 10 μM; read-out: IC50 (M) CYP1A
Description: as §1, §2

CYP2C8 = CYP2C8 (Homo sapiens (Human), UniProt P10632); test: CYP inhibition assay, human liver microsomes; assay type: biochemical; conditions: paclitaxel 10 μM, reference montelukast
Description: as §1, §2

CYP2D6 = CYP2D6 (Homo sapiens (Human), UniProt P10635); test: CYP inhibition assay, human liver microsomes; assay type: biochemical; conditions: dextromethorphan 5 μM
Description: as §1, §2

CYP3A = CYP3A (Homo sapiens, UniProt P08684); test: CYP inhibition assay, human liver microsomes; assay type: biochemical
Description: as §1, §2

CYP2C9 = CYP2C9 (Homo sapiens (Human), UniProt P11712); test: CYP inhibition assay, human liver microsomes; assay type: biochemical; conditions: diclofenac 10 μM, reference sulfaphenazole
Description: as §1, §2

CYP2C19 = CYP2C19 (Homo sapiens (Human), UniProt P33261); test: CYP inhibition assay, human liver microsomes; assay type: biochemical; conditions: omeprazole 0.5 μM
Description: as §1, §2

zebrafish embryos = test: Zebrafish toxicity in the absence of doxorubicin (TD50); conditions: absence of doxorubicin treatment
Description: Dose-response curves were constructed using Prism (GraphPad). Raw data representing percent rescue at each dose was log-transformed, and EC50 values were calculated using nonlinear regression analysis. The median toxic dose (TD50) was defined for each compound by assessing for pericardial edema, non-specific deformities, and death in the absence of doxorubicin treatment (data not shown). Concentrations at and above the TD50 (toxic dose) were excluded from dose-response curves.

CYP1 enzymes = test: Zebrafish CYP1 enzyme levels after DOX treatment; conditions: for levels of CYP1 enzymes after doxorubicin treatment: doxorubicin alone
CYP1A [4] = test: Zebrafish CYP1A Western blot; assay type: in vivo; conditions: co-treatment with DOX, 10 μM
Description: Assessing RNA and protein levels was performed using quantitative PCR (FIG. 2A) and Western blot with a zebrafish-specific antibody against CYP1A (FIG. 2B). […] This effect was seen as early as 18 hours post-treatment, prior to the development of the cardiomyopathy phenotype at 42 hours post-treatment.

HL-1 cardiomyocytes = test: Cultured HL-1 cardiomyocyte model (DOX-induced apoptosis, viability); assay type: cell-based, mouse; conditions: doxorubicin 5 μM
Description: The cardiomyocyte cell line HL-1 derived from mouse atrial tumor was a gift from W. Claycomb. Cells were cultured as previously published (Claycomb et al., 1998) and treated with doxorubicin 5 μM with or without the tested compounds at a concentration up to 50 μM. Viability was assessed after 18 hours of using a CellTiter-Glo Luminescent assay from Promega. Each dose-response experiment was repeated three times.
Compounds were tested in HL-1 cultured cardiomyocytes to assess for efficacy in preventing DOX-induced apoptosis. Cell viability was assessed as described in the materials and methods section.

[5] = system: zebrafish embryos treated with DOX (cardiomyopathy phenotype); test: Zebrafish doxorubicin cardiomyopathy model (rescue from phenotype); assay type: in vivo; conditions: visnagin 20 μM plus AHR agonist
CYP1A [6] = test: Zebrafish proteomics; assay type: in vivo; conditions: zebrafish embryos, 40 hours post-treatment; visnagin 20 μM
Description: (§3) The proteomics analysis was carried out as described in the material and methods section. All protein abundance values are normalized to DMSO-treated control zebrafish. * p<0.05 compared to the DMSO control using the Benjamini-Hochberg method of correcting for multiple hypotheses.

cyp1b1 = test: Zebrafish proteomics; assay type: in vivo; conditions: zebrafish embryos, 40 hours post-treatment; visnagin 20 μM
Description: as §3

cyp1c1 = test: Zebrafish proteomics; assay type: in vivo; conditions: zebrafish embryos, 40 hours post-treatment; visnagin 20 μM
Description: as §3

slc2a1a = test: Zebrafish proteomics; assay type: in vivo; conditions: zebrafish embryos, 40 hours post-treatment; visnagin 20 μM
LOC100332237 = test: Zebrafish proteomics; assay type: in vivo; conditions: zebrafish embryos, 40 hours post-treatment; visnagin 20 μM
sqstm1 = test: Zebrafish proteomics; assay type: in vivo; conditions: zebrafish embryos, 40 hours post-treatment; visnagin 20 μM
thbs1b = test: Zebrafish proteomics; assay type: in vivo; conditions: zebrafish embryos, 40 hours post-treatment; visnagin 20 μM
[7] = system: C-reactive protein 3 (CRP3); test: Zebrafish proteomics; assay type: in vivo
Description: (§4) Expression levels of 6085 proteins were measured in zebrafish treated with doxorubicin with or without visnagin. […] This is in contrast to other proteins that were modulated to a similar extent in fish treated with doxorubicin but were not reversed by co-treatment with visnagin. For instance, levels of myosin heavy chain B (MYHB) were decreased in fish treated with DOX alone and in fish treated with DOX+visnagin. Downregulation of MYHB has been previously described with DOX treatment (Ito H, PNAS 1990). Likewise, the inflammatory marker C-reactive protein 3 (CRP3) was increased in both DOX and DOX+visnagin-treated fish.

[8] = system: myosin heavy chain B (MYHB); test: Zebrafish proteomics; assay type: in vivo
Description: as §4

rad9a = test: Zebrafish proteomics; assay type: in vivo; conditions: zebrafish embryos, 40 hours post-treatment; visnagin 20 μM
[9] = patients treated with DOX; cited from earlier work
gstp2 = test: Zebrafish proteomics; assay type: in vivo; conditions: zebrafish embryos, 40 hours post-treatment; visnagin 20 μM
dhrs13l1 = test: Zebrafish proteomics; assay type: in vivo; conditions: zebrafish embryos, 40 hours post-treatment; visnagin 20 μM

Chain of CYP2B6 (P20813 whole entry): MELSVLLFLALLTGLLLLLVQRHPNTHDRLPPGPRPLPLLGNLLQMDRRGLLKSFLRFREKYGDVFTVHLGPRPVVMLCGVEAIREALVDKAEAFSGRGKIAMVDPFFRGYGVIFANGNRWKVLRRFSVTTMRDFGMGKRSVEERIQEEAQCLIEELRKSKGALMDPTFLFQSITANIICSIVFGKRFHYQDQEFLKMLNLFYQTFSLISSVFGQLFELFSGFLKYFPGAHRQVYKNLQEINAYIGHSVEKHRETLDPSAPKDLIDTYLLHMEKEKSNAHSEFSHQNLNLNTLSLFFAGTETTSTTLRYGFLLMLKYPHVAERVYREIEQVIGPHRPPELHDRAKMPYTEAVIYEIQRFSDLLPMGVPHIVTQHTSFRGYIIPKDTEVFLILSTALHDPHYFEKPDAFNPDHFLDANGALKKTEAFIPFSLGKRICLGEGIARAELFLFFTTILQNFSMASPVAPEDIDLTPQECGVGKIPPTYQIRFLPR
Chain of CYP3A (P08684 2-503 limits assumed): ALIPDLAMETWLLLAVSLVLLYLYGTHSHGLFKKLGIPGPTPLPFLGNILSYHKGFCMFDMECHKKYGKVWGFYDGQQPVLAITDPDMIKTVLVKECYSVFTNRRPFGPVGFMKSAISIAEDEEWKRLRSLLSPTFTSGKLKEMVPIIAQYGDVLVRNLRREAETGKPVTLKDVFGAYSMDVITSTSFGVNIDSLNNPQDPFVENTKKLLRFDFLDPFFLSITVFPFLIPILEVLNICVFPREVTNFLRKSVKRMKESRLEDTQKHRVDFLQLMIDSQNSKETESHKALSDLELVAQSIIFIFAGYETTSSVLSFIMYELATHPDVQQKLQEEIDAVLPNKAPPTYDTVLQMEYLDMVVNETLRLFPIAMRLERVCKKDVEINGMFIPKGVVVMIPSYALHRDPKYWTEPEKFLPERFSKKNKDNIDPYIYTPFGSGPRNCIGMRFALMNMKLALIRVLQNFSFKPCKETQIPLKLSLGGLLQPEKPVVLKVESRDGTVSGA
Chain of CYP2C19 (P33261 whole entry): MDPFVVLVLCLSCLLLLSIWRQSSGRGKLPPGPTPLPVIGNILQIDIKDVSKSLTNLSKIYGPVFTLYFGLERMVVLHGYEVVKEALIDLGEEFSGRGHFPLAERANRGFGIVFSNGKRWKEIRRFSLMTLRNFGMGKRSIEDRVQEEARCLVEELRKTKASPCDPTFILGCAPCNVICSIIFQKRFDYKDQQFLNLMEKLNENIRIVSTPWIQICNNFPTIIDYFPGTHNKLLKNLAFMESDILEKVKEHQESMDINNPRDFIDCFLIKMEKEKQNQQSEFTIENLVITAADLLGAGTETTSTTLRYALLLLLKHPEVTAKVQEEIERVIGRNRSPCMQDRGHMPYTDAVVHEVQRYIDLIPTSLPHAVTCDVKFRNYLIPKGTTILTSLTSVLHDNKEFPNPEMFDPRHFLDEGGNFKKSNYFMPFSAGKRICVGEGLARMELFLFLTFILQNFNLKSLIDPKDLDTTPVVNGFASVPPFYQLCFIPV
Chain of CYP2D6 (P10635 whole entry): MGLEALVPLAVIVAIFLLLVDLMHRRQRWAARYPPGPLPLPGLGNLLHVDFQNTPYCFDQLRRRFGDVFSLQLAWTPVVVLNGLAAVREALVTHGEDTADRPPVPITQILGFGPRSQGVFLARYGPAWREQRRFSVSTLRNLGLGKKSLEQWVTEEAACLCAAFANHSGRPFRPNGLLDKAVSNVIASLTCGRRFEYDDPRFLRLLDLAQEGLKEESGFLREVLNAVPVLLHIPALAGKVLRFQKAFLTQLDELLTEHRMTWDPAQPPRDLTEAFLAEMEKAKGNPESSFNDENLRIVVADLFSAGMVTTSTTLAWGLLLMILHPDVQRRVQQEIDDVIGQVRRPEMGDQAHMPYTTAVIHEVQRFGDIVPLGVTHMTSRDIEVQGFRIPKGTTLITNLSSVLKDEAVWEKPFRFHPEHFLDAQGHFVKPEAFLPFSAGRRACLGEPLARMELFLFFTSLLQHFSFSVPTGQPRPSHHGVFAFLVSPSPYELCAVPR
Chain of CYP1A (Homo sapiens (Human), UniProt P05177) (P05177 whole entry): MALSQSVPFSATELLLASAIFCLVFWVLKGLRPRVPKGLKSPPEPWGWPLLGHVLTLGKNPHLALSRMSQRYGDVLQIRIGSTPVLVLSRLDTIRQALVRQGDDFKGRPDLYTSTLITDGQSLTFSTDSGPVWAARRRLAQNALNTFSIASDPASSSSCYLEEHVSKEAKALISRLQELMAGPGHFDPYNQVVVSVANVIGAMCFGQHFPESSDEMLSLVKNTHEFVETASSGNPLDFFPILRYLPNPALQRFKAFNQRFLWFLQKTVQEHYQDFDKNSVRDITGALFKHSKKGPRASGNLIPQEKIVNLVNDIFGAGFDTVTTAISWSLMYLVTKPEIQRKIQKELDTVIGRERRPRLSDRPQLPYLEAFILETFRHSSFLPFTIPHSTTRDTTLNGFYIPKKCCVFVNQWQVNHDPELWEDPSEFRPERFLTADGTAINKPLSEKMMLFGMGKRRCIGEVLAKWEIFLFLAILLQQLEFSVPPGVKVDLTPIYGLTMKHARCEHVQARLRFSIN
Chain of CYP2C8 (P10632 whole entry): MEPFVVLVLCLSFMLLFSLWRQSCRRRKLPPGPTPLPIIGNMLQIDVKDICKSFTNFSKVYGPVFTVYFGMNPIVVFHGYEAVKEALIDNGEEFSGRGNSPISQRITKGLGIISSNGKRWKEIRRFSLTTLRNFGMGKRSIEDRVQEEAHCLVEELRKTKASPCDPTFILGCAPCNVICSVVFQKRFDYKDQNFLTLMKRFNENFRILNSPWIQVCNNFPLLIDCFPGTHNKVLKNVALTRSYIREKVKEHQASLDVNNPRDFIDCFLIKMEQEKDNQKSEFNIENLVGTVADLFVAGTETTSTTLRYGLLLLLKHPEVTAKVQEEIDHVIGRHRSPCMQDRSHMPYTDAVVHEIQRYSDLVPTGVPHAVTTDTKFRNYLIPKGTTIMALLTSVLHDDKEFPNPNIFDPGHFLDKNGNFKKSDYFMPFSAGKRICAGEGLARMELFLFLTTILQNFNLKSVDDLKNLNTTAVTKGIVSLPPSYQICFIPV
Chain of CYP2C9 (P11712 whole entry): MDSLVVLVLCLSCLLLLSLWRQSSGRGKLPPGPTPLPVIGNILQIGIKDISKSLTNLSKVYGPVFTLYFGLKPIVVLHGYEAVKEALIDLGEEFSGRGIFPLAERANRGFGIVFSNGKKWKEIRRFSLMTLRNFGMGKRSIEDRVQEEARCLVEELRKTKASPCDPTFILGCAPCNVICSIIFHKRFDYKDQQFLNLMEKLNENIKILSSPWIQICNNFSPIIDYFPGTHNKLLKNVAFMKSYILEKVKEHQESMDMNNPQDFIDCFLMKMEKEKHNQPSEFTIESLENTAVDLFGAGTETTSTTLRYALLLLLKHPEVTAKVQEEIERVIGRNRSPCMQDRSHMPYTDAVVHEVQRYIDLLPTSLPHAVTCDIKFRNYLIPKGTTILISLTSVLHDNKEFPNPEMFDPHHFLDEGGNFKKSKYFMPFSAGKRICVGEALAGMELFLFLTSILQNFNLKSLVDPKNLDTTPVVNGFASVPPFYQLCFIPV

SMILES: CC(C)(C)OC(=O)NCCCOc1c2ccoc2cc2oc(=O)ccc12 [Example 2, tert-butyl (3-((7-oxo-7H-furo[3,2-g]chromen-4-yl)oxy)propyl)carbamate]
EC50 [1]: 0.007 µM | cardiac apoptosis / Annexin (Anx-750) uptake ([2]; DOX 15 mg/kg i.p., doses of 0.1 mg/kg, 1 mg/kg and 2 mg/kg i.p., 24 hours): significant reduction in apoptosis; also recorded: reduced significantly; also recorded: significant cardioprotective effect | Annexin-Vivo fluorescence in the mouse heart / cardioprotection ([2]; DOX 15 mg/kg, 0.1 mg/kg i.p.): significantly reduced; also recorded: cardioprotective | ex vivo Anx fluorescence in heart ([2]; DOX 15 mg/kg, dose of 2 mg/kg): marked reduction | potency relative to visnagin in reducing DOX-induced cardiomyocyte apoptosis in mice ([2]; compared to visnagin): 250 fold | IC50 (CYP2B6): 88 µM | Mean % Inhibition CYP2B6 (CYP2B6; reference clopidogrel): 67.2% | IC50 (CYP1A [3]): 1.6e-06 M | Mean % Inhibition CYP2C8 (CYP2C8): 7.1% | IC50 (CYP2D6): 2 µM | Mean % Inhibition CYP2D6 (CYP2D6; reference quinidine): 84.4% | IC50 (CYP3A; probe testosterone 50 μM): 9.3 µM | Mean % Inhibition CYP3A (CYP3A; testosterone 50 μM, reference ketoconazole): 62.7% | Mean % Inhibition CYP2C9 (CYP2C9): 2.4% | IC50 (CYP2C19): 12 µM | Mean % Inhibition CYP2C19 (CYP2C19; reference oxybutynin): 57.0% | toxic dose TD50 in the zebrafish model (zebrafish embryos): > 10 µM | effect on DOX-induced increase of CYP1 enzyme levels (CYP1 enzymes; co-treatment with doxorubicin): completely abolished | induction of CYP1A by DOX, Western blot (CYP1A [4]): mitigated induction of CYP1A | EC50 (HL-1 cardiomyocytes; Mus musculus, HL-1, viability after 18 hours, CellTiter-Glo, read-out: EC50 in HL-1 Cells): > 50 µM | efficacy in HL-1 cell culture model (HL-1 cardiomyocytes; doses up to 50 μM): ineffective

SMILES: COC(=O)c1csc(C(=O)c2c[nH]c3ccccc23)n1 [methyl 2-(1H-indole-3-carbonyl)-1,3-thiazole-4-carboxylate]
effect on visnagin-mediated rescue from doxorubicin-induced cardiomyopathy [5]: abrogated

Protein Abundance (Normalized to DMSO) cyp1a (CYP1A [6]): 9.52* | Protein Abundance (Normalized to DMSO) cyp1b1 (cyp1b1): 6.26* | Protein Abundance (Normalized to DMSO) cyp1c1 (cyp1c1): 7.91* | levels of CYP1 enzymes after doxorubicin treatment (CYP1 enzymes): robust induction
SMILES: COc1cccc2c1C(=O)c1c(O)c3c(c(O)c1C2=O)C[C@@](O)(C(=O)CO)C[C@@H]3O[C@H]1C[C@H](N)[C@H](O)[C@H](C)O1 [DOX, doxorubicin]
Protein Abundance (Normalized to DMSO) slc2a1a (slc2a1a): 1.19 | Protein Abundance (Normalized to DMSO) LOC100332237 (LOC100332237): 3.03* | cardiac annexin uptake, DOX only group ([2]; DOX 15 mg/kg + carrier vs saline control): increased significantly | Protein Abundance (Normalized to DMSO) sqstm1 (sqstm1): 2.78* | Protein Abundance (Normalized to DMSO) thbs1b (thbs1b): 2.29* | levels of C-reactive protein 3 (CRP3) [7]: increased | levels of myosin heavy chain B (MYHB) [8]: decreased | Protein Abundance (Normalized to DMSO) rad9a (rad9a): 2.92* | patients with dose-dependent cardiotoxicity [9]: up to 9% | levels of CYP1 enzymes after doxorubicin treatment (CYP1 enzymes; listed as doxorubicin): significant upregulation; also recorded: significantly increased | Protein Abundance (Normalized to DMSO) gstp2 (gstp2): 2.32* | Protein Abundance (Normalized to DMSO) dhrs13l1 (dhrs13l1): 3.02*

From patent US11396516B2, “Tricyclic compounds as Cyp1 inhibitors” (The General Hospital Corporation, priority 2017, dated 2022)
